The record followed here is patent US6905840B1, “Double motor mutant assay for antifungal agents” (Cytokinetics, Inc., priority 2003, dated 2005).

Experiment [1] deals with kip3-30(ts) kar3Δ (DS752) double mutant. Nature of the experiment: Benomyl suppression of lethality of the kip3-30(ts) kar3 double mutant, spot growth on YPD. It counts as cell-based, Saccharomyces cerevisiae. As to conditions: medium containing a low concentration of benomyl, restrictive temperature (FIG. 1C).
The test system of experiment [2] is kip3-20(ts) dyn1Δ (DS765) double mutant. Description: Benomyl suppression of lethality of the kip3(ts) dyn1 double mutant, spot growth on YPD. It counts as cell-based, Saccharomyces cerevisiae. The note with it: 37° C., solid YPD medium with 1% DMSO, 5 or 10 μg/ml benomyl, 3 d; little growth in the absence of benomyl. The protocol:
Since one phenotype of the kip3 single mutant and the kip3(ts) dyn1 double mutant is increased microtubule abundance, it was tested whether the microtubule-depolymerizing drug benomyl could suppress the lethality of the kip3(ts) dyn1 double mutant.

With `CCCCNC(=O)n1c(NC(=O)OC)nc2ccccc21` [benomyl], the “lethality of the kip3-30(ts) kar3 double mutant” value in experiment [1] is “partially suppressed”. Also, in experiment [2], the “growth of the kip3(ts) dyn1 double mutant (suppression of lethality)” value is listed as “significant growth”.
